PubChem BioAssay (NCI)
“And” between values parts separate entries of the source, which are not always exact repeats. Equal values may be shown once.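 48-hour exposure; five concentrations; linearly interpolated endpoints. At the GI50, growth is halved. The concentration for full growth arrest is given as TGI.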

Assays:
Assay in all cases: NCI tumour cell line growth inhibition, 48 h
[1] = tested on: SN12C renal
[2] = tested on: LOX IMVI melanoma
[3] = tested on: MOLT-4 leukemia
[4] = tested on: M14 melanoma
[5] = tested on: HT29 colon
[6] = tested on: NCI-H226 lung
[7] = tested on: 786-0 renal
[8] = tested on: NCI-H23 lung
[9] = tested on: NCI-H460 lung
[10] = tested on: SF-268 CNS
[11] = tested on: SF-295 CNS
[12] = tested on: OVCAR-3 ovarian
[13] = tested on: SNB-19 CNS
[14] = tested on: HOP-62 NSCLC
[15] = tested on: HOP-92 NSCLC
[16] = tested on: TK-10 renal

Compound | TGI [1] | TGI [2] | TGI [3] [µM] | TGI [4] [µM] | TGI [5] [µM] | TGI [6] [µM] | TGI [7] | TGI [8] [µM] | TGI [9] [µM] | TGI [10] | TGI [11] [µM] | TGI [12] [µM] | TGI [13] [µM] | TGI [14] [µM] | TGI [15] [µM] | GI50 [16] [µM] | TGI [16] | GI50 [5] [µM]
CC(=O)OCC1OC(SC2=NC(=O)/C(=C/c3ccccc3)S2)C(OC(C)=O)C(OC(C)=O)C1OC(C)=O (configuration not stated) | > 100 µM | 42.9 µM | 54.5 | > 100 | > 100 | 95 | 30.8 µM | > 100 | > 100 | 52.3 µM | > 100 | 44.4 | > 100 | > 100 | 44.2 |  |  | 
COc1cc2c(c(OC)c1OC)-c1ccc(SC)c(=O)cc1[C@@H](NC(=O)c1ccc([N+](=O)[O-])cc1)CC2 | 25 µM and > 100 µM | 25 µM and > 100 µM |  |  |  |  | 15.6 µM and 30.7 µM |  | 0.0108 | 25 µM and > 100 µM | 0.00721 | 0.00595 | 23.2 |  | 23.2 | 0.0344 | 25 µM and > 100 µM | < 0.0025
C[C@]12CC[C@H](O)CC1=CC[C@@H]1[C@@H]2CC[C@]2(C)C(=O)/C(=C/c3ccc([N+](=O)[O-])cc3)C[C@@H]12 | 33 µM | 22.5 µM | > 100 | > 100 | > 100 | 10.2 | 10.8 µM | 57 | > 100 | 21.5 µM | 20.6 | 33.8 | 27.8 | 17 | 22.6 |  |  | 
Cn1c(COC(=O)NC2CCCCC2)c(COC(=O)NC2CCCCC2)c2ccc3cc(C=O)ccc3c21 | > 100 µM | > 100 µM | > 100 | > 100 | > 100 | > 100 | > 100 µM | > 100 |  | > 100 µM | > 100 | > 100 | > 100 |  | > 100 |  | > 100 µM | 
CC(=O)OCC1OC(n2c(N)c(C#N)c(-c3cccc(Cl)c3)c(C#N)c2=S)C(OC(C)=O)C(OC(C)=O)C1OC(C)=O (configuration not stated) | > 100 µM | 30.1 µM | 51.5 | 57.1 | 84.5 |  | 60.5 µM | 92.7 | > 100 | 39.4 µM | > 100 | 58 | > 100 | > 100 | > 100 |  | 54.2 µM | 
OC1(c2ccc(Cl)cc2)c2c(c3ccccc3c3ccccc23)C2=NCCN21 (configuration not stated) | 44.7 µM | 73.8 µM | > 100 | 27 | 35.5 |  | 15.2 µM | 24.5 | 41.4 | 24.9 µM | 28.1 | 62.1 | 27.8 | 24.2 | 49.4 |  | 16.8 µM | 
O=S1(=O)OCCCOS(=O)(=O)C1(Br)Br | > 100 µM | > 100 µM | > 100 | > 100 | > 100 | > 100 | > 100 µM | > 100 |  | > 100 µM | > 100 | > 100 | > 100 | > 100 |  |  | > 100 µM | 
CN(C(=O)C12C3C4C1C1C2C3C41C(O)C(C)(C)C)C(C)(C)C (configuration not stated) | > 100 µM | > 100 µM | > 100 | > 100 | > 100 | > 100 | > 100 µM | > 100 | > 100 | > 100 µM | > 100 | > 100 | > 100 | > 100 |  |  | > 100 µM | 
C=CCOCn1ccc(N)nc1=O | > 100 µM | > 100 µM | > 100 | > 100 | > 100 | > 100 | > 100 µM | > 100 |  | > 100 µM | > 100 |  | > 100 | > 100 |  |  | > 100 µM | 
C[N+](C)(C)CC(CC(=O)[O-])C1CC1 (configuration not stated) | > 100 µM | > 100 µM | > 100 | > 100 | > 100 |  | > 100 µM | > 100 | > 100 | > 100 µM | > 100 | > 100 | > 100 | > 100 | > 100 |  | > 100 µM | 
CC(=O)OCCOCNC(=S)N/N=C(\C)c1cccs1 | > 100 µM | > 100 µM | > 100 | > 100 | > 100 | > 100 | > 100 µM | > 100 | > 100 | > 100 µM | > 100 | > 100 | > 100 | > 100 |  |  | > 100 µM | 
c1ccc2c(c1)Sc1ccccc1N2C1CN2CCC1CC2 (configuration not stated) | 29.1 µM | 26.8 µM | 28.1 |  | 53.9 | 18.9 | 25.9 µM | 74.5 | 33.4 | 63 µM | 32.2 | 31.5 | 46.7 | 25.9 |  |  | 27.7 µM | 
COc1cc(S(=O)(=O)Nc2ccc(-c3csc(N4C(=O)C(C)SC4c4ccccc4)n3)cc2)ccc1Cl (configuration not stated) | > 100 µM | > 100 µM | > 100 | > 100 | > 100 | > 100 | > 100 µM | > 100 |  | > 100 µM |  | > 100 | > 100 |  | > 100 |  |  | 
Cc1ccc2c(=O)cc(Cc3csc4ccccc34)[nH]c2n1 | > 100 µM | 40.6 µM | > 100 | > 100 | > 100 | 85.8 | > 100 µM | 53.4 |  | > 100 µM | 93.8 | > 100 | > 100 | > 100 |  |  | > 100 µM | 
C1=CN2C[n+]3ccc4ccccc4c3N=C2c2ccccc21 | 9.52 µM |  | 13.3 | 11.7 | 10.4 |  | 10.3 µM | 21.4 | 16.4 | 8.35 µM | 24 | 3.51 | 33.3 | 32.5 | 7.92 |  | 43 µM | 
